Source: patent publication US20240360153A1 (Regeneron Pharmaceuticals, Inc., priority 2023, published 2024)
pIC50: −log10 of the molar value. “Also recorded” adds a separate entry of the source.

Tests used:
[1] = Pharmacokinetic studies in male CD-1 mice (plasma, IV and PO); type: in vivo, mouse; details: for clearance / Vd / bioavailability / half-life / Cmax / concentration at 8 h / concentration at 24 h: male; for clearance / Vd / bioavailability: CD-1, plasma, mouse; for clearance / Vd / half-life: IV 2 mg/kg; for clearance: read-out: CI(mL/min/kg), compounds clearance following IV administration; for Vd: read-out: Vdss (L/kg), volume of distribution following IV administration; for bioavailability: PO 10 mg/kg vs IV 2 mg/kg; for half-life / Cmax / concentration at 8 h / concentration at 24 h: CD-1; for half-life / Cmax / concentration at 8 h / concentration at 24 h / IV plasma half-life (T1/2): mouse plasma; for half-life: read-out: IV T1/2 (converted); for Cmax / concentration at 8 h / concentration at 24 h: PO 10 mg/kg; for concentration at 8 h: read-out: Compound concentration at 8-hour, PO administration; for concentration at 24 h: read-out: Compound concentration at 24-hour, PO administration
Method: Animal experiments were carried out at Wuxi AppTec. Male 6-8 weeks old CDI mice were obtained from Hilltop Labs. Following arrival at Wuxi AppTec, mice were housed in animal rooms with environmental control (temperature: 20 to 26° C.; lighting: 12 hour light/dark cycle). Mice were fed with certified pellet diet (Certified Rodent Diet #5002 by LabDiet). Water was provided to the animals ad libitum. Mice were acclimated to the facility for at least 3 days prior to starting experiments.
Appropriate amount of test article formulated in 5% ethanol, 5% Tween-80 and 5% PEG-400, 85% water. Formulation was prepared on the day of dosing and dosed within 2 hours following preparation of formulations. Dose accuracy was determined by LC-MS/MS.
Dose formulation(s) were administered following facility SOPs. Dose volumes were determined individually prior to dosing based on animals' body weights.
About 40 μL of blood samples were collected via peripheral veins (e.g. saphenous veins) at each pre-defined time point. Blood samples were collected into tubes containing K2EDTA as anti-coagulant and kept on ice until centrifugation.
Blood samples were centrifuged at 4° C., 3000 g for 5 min within half an hour of collection. Plasma was transferred into polypropylene tubes or 96-well plates, promptly frozen on dry ice and stored at −70±10° C. until analysis by LC-MS/MS.
Test compound concentration in mouse plasma was determined with LC-MS/MS method using a calibration curve with at least 6 non-zero calibration standards.
The pharmacokinetics (PK) of the test article was analyzed using Phoenix WinNonlin software (version 8.3) and non-compartmental analysis model. Derived PK parameters include, but not limited to, C0, CLp, Vdss, Cmax, Tmax, T1/2, AUC(0-t), AUC(0-inf), MRT(0-t), MRT(0-inf) and % F (bioavailability).

[2] = test system: S6K1 (Thr389) phosphorylation (mTORC1 activity) in wild-type (WT) 293T cells; test: Inhibition of S6K1 (Thr389) phosphorylation in wild-type 293T cells (ELISA); type: cell-based, human; details: for extent of inhibition of S6K1 (Thr389) phosphorylation: with increasing concentrations
Procedure, shortened: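 WT 293T cells in DMEM + 10% FBS, grown 24 h to ~80% confluence, then treated 2 h at 37 °C in duplicate with compounds over an 8–11-point range from 0.001 pM to 10 μM. DMSO vehicle served as negative control. Phospho-S6K1 (Thr389) measured by ELISA.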

[3] = In vitro microsomal metabolic stability, human liver microsomes; type: in vitro ADME; details: for Remaining (T = 60 min) / Remaining (T = NCF60 min) / half-life at 1 µM: Human liver microsomes; for Remaining (T = 60 min): with NADPH; for Remaining (T = NCF60 min): without NADPH regenerating system; for Remaining (T = 60 min) / Remaining (T = NCF60 min): 60 min; for CLint scaled at 1 µM / microsomal CLint at 1 µM: human, human liver microsomes; for CLint scaled at 1 µM / microsomal CLint at 1 µM / half-life at 1 µM: pH 7.2; for half-life at 1 µM: 0.5 mg/ml protein, NADPH
Procedure, shortened: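 Compounds at 1 μM incubated at 37° C with pooled CD-1 mouse or human liver microsomes (0.5 mg/mL protein) plus NADPH regenerating system in 50 mM potassium phosphate, pH 7.2, 3.3 mM MgCl2; sampled at 0–60 min, 60-min no-NADPH control. Parent loss by LC/MS/MS analyte/IS peak-area ratio, n=1.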

SMILES: CO[C@H]1C[C@@H]2CC[C@@H](C)[C@@](O)(O2)C(=O)C(=O)N2CCCC[C@H]2C(=O)O[C@H]([C@H](C)C[C@@H]2CC[C@@H](OCCO)[C@H](OC)C2)CC(=O)[C@H](C)/C=C(\C)[C@@H](O)[C@@H](OC)C(=O)[C@H](C)C[C@H](C)/C=C/C=C/C=C/1C [RAD001, everolimus, reference compound]
- clearance [1]: 0.934 mL/min/kg
- Vd [1]: 0.433 L/kg
- bioavailability [1]: 26%
- half-life [1]: 5.85 h
- Cmax [1]: 7220 ng/mL
- concentration at 8 h [1]: 1960 ng/mL
- concentration at 24 h [1]: 273 ng/mL
- IV plasma half-life (T1/2) [1]: 5.85 h
- extent of inhibition of S6K1 (Thr389) phosphorylation ([2]; wild-type cells): completely inhibit; also recorded: near complete inhibition
- Remaining (T = 60 min) [3]: 2.10%
- Remaining (T = NCF60 min) [3]: 120%
- CLint scaled at 1 µM [3]: 112 mL/min/kg
- microsomal CLint at 1 µM [3]: 124 µL/min/mg
- half-life at 1 µM [3]: 0.185 h

SMILES: COCCN(c1ccccc1)C1C[C@@H]2CC[C@@H](C)[C@@](O)(O2)C(=O)C(=O)N2CCCC[C@H]2C(=O)OC([C@H](C)CC2CC[C@@H](O)C(OC)C2)CC[C@H](C)/C=C(\C)C(O)C(OC)C(=O)[C@H](C)C[C@H](C)/C=C/C=C/C=C/1C (stereo partly drawn) [Compound 69, (3S,6S,7E,9R,10R,12R,14S,15E,17E,19E,23S,26R,27R,34aS)-9,27-dihydroxy-3-((R)-1-((1S,3R,4R)-4-hydroxy-3-methoxycyclohexyl)propan-2-yl)-10-methoxy-21-((2-methoxyethyl)(phenyl)amino)-6,8,12,14,20,26-hexamethyl-5,6,9,10,12,13,14,21,22,23,24,25,26,27,32,33,34,34a-octadecahydro-3H-23,27-epoxypyrido[2,1-c][1]oxa[4]azacyclohentriacontine-1,11,28,29(4H,31H)-tetraone]
- clearance [1]: 0.176 mL/min/kg
- Vd [1]: 0.228 L/kg
- bioavailability [1]: 30.7%
- half-life [1]: 15.5 h
- Cmax [1]: 12900 ng/mL
- concentration at 8 h [1]: 10000 ng/mL
- concentration at 24 h [1]: 4670 ng/mL
- IV plasma half-life (T1/2) [1]: 15.5 h
- pIC50 ([2]; Homo sapiens, HEK-293T, 2 h, wild-type 293T cells, 2 hours treatment): 8.82
- fold lower potency compared with RAD001 (by IC50) ([2]; wild-type cells): 4 fold
- extent of inhibition of S6K1 (Thr389) phosphorylation ([2]; wild-type cells): near complete inhibition
- Remaining (T = 60 min) [3]: 63.3%
- Remaining (T = NCF60 min) [3]: 115%
- CLint scaled at 1 µM [3]: 25.5 mL/min/kg
- microsomal CLint at 1 µM [3]: 28.3 µL/min/mg
- half-life at 1 µM [3]: 0.817 h
